Laboratory results: patent US8486991B2, “Enantiomerically pure phosphoindoles as HIV inhibitors” (Idenix Pharmaceuticals, Inc., priority 2006, dated 2013)
Several values for one entry are separate records, joined by “and”; a condition that tells them apart may be missing. Identical values can stand only once. Like-named read-outs stand apart in the source and are kept apart here.

Key:
[1] = molecular target: T1, human DNA polymerase gamma (Homo sapiens, UniProt P54098); assay: Human cellular DNA polymerase gamma assay; type: biochemical
T1 sequence (P54098 1-1239): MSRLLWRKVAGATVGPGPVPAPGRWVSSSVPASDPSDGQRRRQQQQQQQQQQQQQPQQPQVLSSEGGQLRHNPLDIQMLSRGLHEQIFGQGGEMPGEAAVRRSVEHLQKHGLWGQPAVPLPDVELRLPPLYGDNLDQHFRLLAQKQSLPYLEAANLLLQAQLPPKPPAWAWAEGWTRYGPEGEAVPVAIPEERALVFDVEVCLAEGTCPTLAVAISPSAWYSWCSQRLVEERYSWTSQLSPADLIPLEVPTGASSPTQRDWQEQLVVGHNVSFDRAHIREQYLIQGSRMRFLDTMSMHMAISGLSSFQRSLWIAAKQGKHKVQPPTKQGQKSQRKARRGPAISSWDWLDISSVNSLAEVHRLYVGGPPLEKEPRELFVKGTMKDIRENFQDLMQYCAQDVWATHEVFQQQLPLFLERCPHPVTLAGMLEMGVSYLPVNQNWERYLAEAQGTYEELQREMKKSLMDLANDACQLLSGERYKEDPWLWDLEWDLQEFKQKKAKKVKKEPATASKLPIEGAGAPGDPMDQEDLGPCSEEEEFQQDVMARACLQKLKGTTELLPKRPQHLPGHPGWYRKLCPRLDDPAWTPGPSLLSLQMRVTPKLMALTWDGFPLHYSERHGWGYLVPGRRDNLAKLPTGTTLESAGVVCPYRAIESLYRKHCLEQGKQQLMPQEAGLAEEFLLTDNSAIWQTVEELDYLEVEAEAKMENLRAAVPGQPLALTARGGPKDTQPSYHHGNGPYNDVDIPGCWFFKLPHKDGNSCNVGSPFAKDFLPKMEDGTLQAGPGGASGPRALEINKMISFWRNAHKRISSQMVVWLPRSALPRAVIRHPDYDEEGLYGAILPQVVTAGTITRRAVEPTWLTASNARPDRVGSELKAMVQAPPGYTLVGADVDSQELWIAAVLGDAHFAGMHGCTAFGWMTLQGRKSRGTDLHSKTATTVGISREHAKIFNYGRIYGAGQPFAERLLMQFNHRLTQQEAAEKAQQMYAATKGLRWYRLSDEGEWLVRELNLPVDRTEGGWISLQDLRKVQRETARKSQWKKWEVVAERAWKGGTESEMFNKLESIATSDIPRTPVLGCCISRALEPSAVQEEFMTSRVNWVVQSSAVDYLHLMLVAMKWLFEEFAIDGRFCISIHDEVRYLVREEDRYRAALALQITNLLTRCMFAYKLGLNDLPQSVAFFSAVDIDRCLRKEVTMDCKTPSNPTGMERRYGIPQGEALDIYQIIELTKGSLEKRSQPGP
Excerpt: HIV RT, like other viral polymerase, shares limited structural homology with the cellular DNA polymerases responsible for normal nuclear and mitochondrial DNA synthesis and repair. This raises the formal possibility that inhibitors of HIV RT might inhibit cellular polymerases, resulting in cellular toxicity. In particular, inhibition of polymerase gamma has the potential to result in mitochondrial toxicity. The ability of Compound I and Compound III to inhibit cellular DNA polymerases was assessed using standard in vitro assays (Table 5).

HIV-1 NL4-3 w.t. virus = assay: microbe, parasite or virus in culture; type: cell-based; settings: for Fold Change, W.T.: Table 11, NL4-3
HIV-1 NL4-3 K103N virus = assay: microbe, parasite or virus in culture; type: cell-based; settings: for EC50: Human immunodeficiency virus 1, NL43, MT4, read-out: Average EC50 Values ± Standard Deviation, K103N; for Fold Change, K103N: Table 11, NL4-3
HIV-1 W.T. (NL4-3) virus = assay: PBMC cell assay, W.T. (NL4-3); type: cell-based
[2] = tested on: HIV-1 IIIB K103R/V179D/P225H triple mutant virus; assay: microbe, parasite or virus in culture; type: cell-based; settings: for EC50: Human immunodeficiency virus 1, IIIB; for Fold Change, K103R/V179D/P225H: Table 16, IIIB
Experimental: (§1) The test articles were next profiled against a panel of HIV-1 IIIB laboratory cultivated mutants as summarized in the text below. Antiviral efficacy was determined via a CPE assay with an MTS read-out for cell viability.

HIV-1 IIIB w.t. virus = assay: microbe, parasite or virus in culture; type: cell-based; settings: for Fold Change, W.T.: Table 16
Experimental: as §1

[3] = tested on: 9 different HIV-1 subtypes (A, B, C, D, F1, G, H, AE, AG), 18 viruses; assay: PhenoSense testing, HIV-1 subtype panel; type: cell-based; settings: Human immunodeficiency virus 1, read-out: potency range, panel of 9 different HIV-1 subtypes
Excerpt: The activities of the test and control compounds were next tested against a subtype panel which covers all major HIV-1 subtypes or clades (A, B, C, D, F1, G, H, AE and AG). This panel was part of a 64 virus panel selected from the large library of clinical isolates Monogram BioSciences (formerly ViroLogics). Each of the subtypes in the panel was represented by 2 distinct viruses which share many sequence similarities, but also some key differences and therefore could respond differently to one or more of the drugs included in this study.

[4] = Longer term cytotoxicity, 9 days, MTS, HeLa; settings: human
Experimental: (§2) Cell viability was measured by standard MTT or MTS staining.
(§3) Cells were repeatedly treated with a range of drug concentrations (0.005 to 100 μM) for 9 (HeLa) or 12 days (HuH7, HepG2).

[5] = Longer term cytotoxicity, HeLa, HuH7 and HepG2 (ranges); settings: human, HuH7 and HepG2, 9-12 day testing
Experimental: as §2, §3

[6] = Human immunodeficiency virus 1, NL43, MT4, read-out: Average EC50 Values ± Standard Deviation, W.T.
[7] = Human immunodeficiency virus 1, NL43, MT4, read-out: Average EC50 Values ± Standard Deviation, host MT-4, virus NL4-3
[8] = Human immunodeficiency virus 1, NL43, PBMC, read-out: Average EC50 Values ± Standard Deviation, W.T. (NL4-3)
[9] = Human immunodeficiency virus 1, NL43, PBMC, read-out: mean EC50, NL4-3 strain in human PBMC
[10] = MT4, read-out: Average EC50 Values ± Standard Deviation, K103R/V179D/P225H
[11] = MT4, read-out: EC50, K103R/V179D/P225H triple mutant virus
[12] = Human immunodeficiency virus 1, MT4, Table 15, IIIB, CPE, read-out: Average EC50 Values ± Standard Deviation, W.T.
[13] = Table 5, preliminary data from a single experiment, read-out: Average IC50 Values, DNA Pol Gamma
[14] = HuH7 and HepG2 cells (range over the three lines)

Structure (SMILES)	EC50 (HIV-1 NL4-3 w.t. virus; [6])	EC50 (HIV-1 NL4-3 w.t. virus; [7])	Fold Change, W.T. (HIV-1 NL4-3 w.t. virus)	EC50 (HIV-1 NL4-3 K103N virus)	Fold Change, K103N (HIV-1 NL4-3 K103N virus)	EC50 (HIV-1 W.T. (NL4-3) virus; [8])	EC50 (HIV-1 W.T. (NL4-3) virus; [9])	EC50 [2, 10]	EC50 [2, 11]	Fold Change, K103R/V179D/P225H [2]	EC50 (HIV-1 IIIB w.t. virus; [12])	Fold Change, W.T. (HIV-1 IIIB w.t. virus; IIIB)	EC50 [3]	IC50 [1, 13]	CC50 at 9 days ([4]; HeLa epithelial cells)	CC50 [5, 14]	other results
CO[P@](=O)(c1cc(C)cc(/C=C/C#N)c1)c1c(C(N)=O)[nH]c2ccc(Cl)c(F)c12 [Compound I, (2-Carbamoyl-5-chloro-4-fluoro-1H-indol-3-yl)-[3-((E)-2-cyano-vinyl)-5-methyl-phenyl]-(R)-phosphinic acid methyl ester]	2 ± 0.1 nM	2 ± 0.1 nM	1 fold	1.4 ± 0.4 nM	0.7 ± 0.2 fold	1.5 ± 0.7 nM	1.5 nM	10 ± 1.5 nM	10 nM	11.1±4.1 fold	1 ± 0.4 nM	1 fold	0.25 to 3.2 nM	–	–	–	IC50 ([1]; Average IC50 Values, DNA Pol Gamma, Table 5, preliminary data from a single experiment): 118000 nM; IC50 ([1]; Mean IC50 Values ± Standard Deviation, DNA Pol Gamma, Table 6, N=4): 118000 nM; Fold Change, K103R/V179D/P225H ([2]; listed as Cmpd. I): 11.1 ± 4.1 fold; CC50 at 9 days [4]: 27900 ± 1140 nM; CC50 ([5]; CC50 range): 23500 to 31500 nM
CO[P@](=O)(c1cc(C)cc(/C=C/C#N)c1)c1c(C(N)=O)[nH]c2ccc(Cl)cc12 [Compound III, (2-Carbamoyl-5-chloro-1H-indol-3-yl)-[3-((E)-2-cyano-vinyl)-5-methyl-phenyl]-(R)-phosphinic acid methyl ester]	1.7 ± 0.3 nM	1.7 ± 0.3 nM	1 fold	1.5 ± 0.3 nM	0.9 ± 0.2 fold	1.5 ± 0.5 nM	1.5 nM	25 ± 6 nM	21 to 25 nM	53.5±12.8 fold	0.5 ± 0.1 nM	1 fold	0.2 to 2.14 nM	≥ 60000 nM and 60100 nM	29900 ± 2090 nM	23500 to 31500 nM	Fold Change, K103R/V179D/P225H ([2]; listed as Cmpd. III): 53.5 ± 12.8 fold
O=C1Nc2ccc(Cl)cc2C(C#CC2CC2)(C(F)(F)F)O1 (centres unmarked) [EFV, 6-chloro-4-cyclopropylethynyl-4-trifluoromethyl-1,4-dihydro-2H-3,1-benzoxazin-2-one, reference compound]	2.3 ± 0.2 nM	2.3 ± 0.2 nM	–	61.2 ± 33.8 nM	–	–	–	> 1000 nM	> 1000 nM	–	–	–	0.4 to 3.1 nM	116000 nM	48600 ± 2500 nM	48000 to 81000 nM	IC50 ([1]; Table 6, N=4, read-out: Mean IC50 Values ± Standard Deviation, DNA Pol Gamma): ≥ 100000 nM; EC50 (HIV-1 W.T. (NL4-3) virus; Human immunodeficiency virus 1, NL43, Table 14, PBMC, read-out: Average EC50 Values ± Standard Deviation, W.T. (NL4-3)): 2.1 ± 0.7 nM; EC50 (HIV-1 IIIB w.t. virus; Human immunodeficiency virus 1, IIIB, MT4, read-out: Average EC50 Values ± Standard Deviation, W.T.): 1.5 ± 0.6 nM
